Data on three molecules can be found in ChEMBL document CHEMBL1155623, “New skeletal sesquiterpenoids, caprariolides A-D, from Capraria biflora and their insecticidal activity” (2000).

The assay has as its system Cylas formicarius. Nature of the assay: Insecticidal activity in adult Cylas formicarius elegantulus measured per insect after 24 hrs. It counts as functional.

`C[C@@H]1CC(c2ccoc2)=C[C@]2(C1)C[C@H](C)C(=O)O2` [CAPRARIOLIDE A]: the LD50 is listed as 0.902 mg.
Regarding `C[C@@H]1CC(c2ccoc2)=C[C@]2(C1)C[C@@H](C)C(=O)O2` [CAPRARIOLIDE B], the LD50 is reported as 1.102 mg.
Consider `C=CCc1ccc(O)c(OC)c1` [EUGENOL], for which the LD50 was 0.605 mg.
